Measured values taken from patent publication US12384789B2, “Compounds for treating Huntington's disease” (PTC Therapeutics, Inc., priority 2017, dated 2025).

system: Endogenous Huntingtin Protein; assay: Endogenous Huntingtin Protein Assay (Meso Scale Discovery ELISA-based electrochemiluminescence); format: cell-based; conditions: MSD electrochemiluminescence, Table 1
Description: Compounds of Formula (I) were tested using the Meso Scale Discovery (MSD) Assay provided in International Application No. PCT/US2016/066042, filed on Dec. 11, 2016 and claiming priority to United States Provisional Application U.S. 62/265,652 filed on Dec. 10, 2015, the entire contents of which are incorporated herein by reference.
The Endogenous Huntingtin Protein assay used in Example 1 was developed using the ELISA-based MSD electrochemiluminescence assay platform.
Endogenous Huntingtin Protein Assay
Meso Scale Discovery (MSD) 96-well or 384-well plates were coated overnight at 4° C. with MW1 (expanded polyglutamine) or MAB2166 monoclonal antibody (for capture) at a concentration of 1 μg/mL in PBS (30 μL per well). Plates were then washed three times with 300 μL wash buffer (0.05% Tween-20 in PBS) and blocked (100 μL blocking buffer; 5% BSA in PBS) for 4-5 hours at room temperature with rotational shaking and then washed three times with wash buffer.
Samples (25 μL) were transferred to the antibody-coated MSD plate and incubated overnight at 4° C. After removal of the lysates, the plate was washed three times with wash buffer, and 25 μL of #5656S (Cell signaling; rabbit monoclonal) secondary antibody (diluted to 0.25 μg/mL in 0.05% Tween-20 in blocking buffer) was added to each well and incubated with shaking for 1 Hour at room temperature. Following incubation with the secondary antibody, the wells were rinsed with wash buffer after which 25 μL of goat anti-rabbit SULFO TAG secondary detection antibody (required aspect of the MSD system) (diluted to 0.25 μg/mL in 0.05% Tween-20 in blocking buffer) was added to each well and incubated with shaking for 1 hour at room temperature. After rinsing three times with wash buffer, 150 μL of read buffer T with surfactant (MSD) were added to each empty well, and the plate was imaged on a SI 6000 imager (MSD) according to manufacturers' instructions provided for 96- or 384-well plates.

Compound	IC50 [µM]
CCN1CCC(c2cc3c(F)cc(-c4cc(C(C)C)c5nc(C)cn5n4)cc3nn2)CC1 [Compound 222, 3-(1-ethylpiperidin-4-yl)-5-fluoro-7-[2-methyl-8-(propan-2-yl)imidazo[1,2-b]pyridazin-6-yl]cinnoline]	0.1 to 0.5
Cc1cn2nc(-c3cc(F)c4cc(N5CC6(CCCNC6)C5)nnc4c3)cc(C)c2n1 [Compound 218, 3-(2,6-diazaspiro[3.5]nonan-2-yl)-7-(2,8-dimethylimidazo[1,2-b]pyridazin-6-yl)-5-fluorocinnoline]	≤ 0.1
COCCNc1cc(-c2cc(F)c3nc(C4CCNCC4)ccc3c2)nn2cc(C)nc12 [Compound 54, 6-[8-fluoro-2-(piperidin-4-yl)quinolin-6-yl]-N-(2-methoxyethyl)-2-methylimidazo[1,2-b]pyridazin-8-amine]	0.1 to 0.5
Cc1cn2nc(-c3cc(F)c4nc(C5CCNCC5)ccc4c3)cc(C)c2n1 [Compound 45, 6-(2,8-dimethylimidazo[1,2-b]pyridazin-6-yl)-8-fluoro-2-(piperidin-4-yl)quinoline]	≤ 0.1
CCN1CC=C(c2cc(F)c3nc(-c4cc(F)c5nn(C)cc5c4)ccc3c2)CC1 [Compound 184, 6-(1-ethyl-1,2,3,6-tetrahydropyridin-4-yl)-8-fluoro-2-(7-fluoro-2-methyl-2H-indazol-5-yl)quinoline]	≤ 0.1
Cc1cn2nc(-c3cc(F)c4cc(N5C[C@@H](C)N[C@@H](C)C5)nnc4c3)cc(C)c2n1 [Compound 81, 7-(2,8-dimethylimidazo[1,2-b]pyridazin-6-yl)-3-[(3R,5S)-3,5-dimethylpiperazin-1-yl]-5-fluorocinnoline]	≤ 0.1
Cc1cn2cc(-c3ccc4nc(C5CCNCC5)ccc4c3)nc(C)c2n1 [Compound 18, 6-(2,8-dimethylimidazo[1,2-a]pyrazin-6-yl)-2-(piperidin-4-yl)quinoline]	0.1 to 0.5
Cc1cn2nc(-c3cc(F)c4nc(C5CCNCC5)ncc4c3)cc(C)c2n1 [Compound 37, 6-(2,8-dimethylimidazo[1,2-b]pyridazin-6-yl)-8-fluoro-2-(piperidin-4-yl)quinazoline]	≤ 0.1
Cc1cn2nc(-c3cc(F)c4cc(C5CCN(CCF)CC5)nnc4c3)cc(C#N)c2n1 [Compound 179, 6-{5-fluoro-3-[1-(2-fluoroethyl)piperidin-4-yl]cinnolin-7-yl}-2-methylimidazo[1,2-b]pyridazine-8-carbonitrile]	≤ 0.1
Cc1cn2nc(-c3cc(F)c4cc(N5CCC(N(C)C)C5)nnc4c3)cc(C)c2n1 (stereo not shown) [Compound 86, 1-[7-(2,8-dimethylimidazo[1,2-b]pyridazin-6-yl)-5-fluorocinnolin-3-yl]-N,N-dimethylpyrrolidin-3-amine]	≤ 0.1
CCN1CCC(c2ccc3nc(-c4ccc5nn(C)cc5c4)ccc3c2)CC1 [Compound 2, 6-(1-ethylpiperidin-4-yl)-2-(2-methyl-2H-indazol-5-yl)quinoline]	1 to 3
CCc1cc(-c2cc(F)c3cc(C4CCN(CCO)CC4)nnc3c2)nn2cc(C)nc12 [Compound 123, 2-{4-[7-(8-ethyl-2-methylimidazo[1,2-b]pyridazin-6-yl)-5-fluorocinnolin-3-yl]piperidin-1-yl}ethan-1-ol]	≤ 0.1
Cc1cn2cc(-c3cc4c(F)cc(C5=CCNCC5)cc4nn3)cc(F)c2n1 [Compound 117, 5-fluoro-3-(8-fluoro-2-methylimidazo[1,2-a]pyridin-6-yl)-7-(1,2,3,6-tetrahydropyridin-4-yl)cinnoline]	≤ 0.1
Cc1cc(-c2cc(F)c3cc(C4C[C@@H](C)N(C)[C@@H](C)C4)nnc3c2)nc2cn(C)nc12 (stereo partly drawn) [Compound 227, 7-(2,7-dimethyl-2H-pyrazolo[4,3-b]pyridin-5-yl)-5-fluoro-3-((2S,4R,6R)-1,2,6-trimethylpiperidin-4-yl)cinnoline]	≤ 0.1
CCN1CCC(c2cc(F)c3cc(-c4cc(F)c5nn(C)cc5c4)nnc3c2)CC1 [Compound 154, 7-(1-ethylpiperidin-4-yl)-5-fluoro-3-(7-fluoro-2-methyl-2H-indazol-5-yl)cinnoline]	≤ 0.1
Cc1cc2oc(-c3cc(F)c4cc(C5C[C@@H](C)N(C)[C@@H](C)C5)nnc4c3)nc2c(C)n1 (stereo partly drawn) [Compound 228, 7-(4,6-dimethyloxazolo[4,5-c]pyridin-2-yl)-5-fluoro-3-((2S,4R,6R)-1,2,6-trimethylpiperidin-4-yl)cinnoline]	0.1 to 0.5
Cc1cc(-c2ccc3nc(C4=CC(C)(C)NC(C)(C)C4)ccc3c2)cc2cn(C)nc12 [Compound 13, 6-(2,7-dimethyl-2H-indazol-5-yl)-2-(2,2,6,6-tetramethyl-1,2,3,6-tetrahydropyridin-4-yl)quinoline]	1 to 3
Cc1cn2nc(-c3cc(F)c4cc(N5CCNCC5)nnc4c3)cc(C)c2n1 [Compound 80, 7-(2,8-dimethylimidazo[1,2-b]pyridazin-6-yl)-5-fluoro-3-(piperazin-1-yl)cinnoline]	≤ 0.1
CCCc1cc(-c2cc(F)c3cc(C4CCN(CC)CC4)nnc3c2)nn2cc(C)nc12 [Compound 212, 3-(1-ethylpiperidin-4-yl)-5-fluoro-7-(2-methyl-8-propylimidazo[1,2-b]pyridazin-6-yl)cinnoline]	0.1 to 0.5

Further lines, results first:

IC50 [µM]	Compound
≤ 0.1	Cc1cn2nc(-c3cc(F)c4cc(C5CCNCC5)nnc4c3)cc(C3CC3)c2n1 [Compound 112, 7-(8-cyclopropyl-2-methylimidazo[1,2-b]pyridazin-6-yl)-5-fluoro-3-(piperidin-4-yl)cinnoline]
≤ 0.1	CCN1CCC(c2cc3c(F)cc(-c4cc(F)c5nc(C)cn5c4)cc3nn2)CC1 [Compound 102, 3-(1-ethylpiperidin-4-yl)-5-fluoro-7-(8-fluoro-2-methylimidazo[1,2-a]pyridin-6-yl)cinnoline]
≤ 0.1	CCN1CCC(c2cc3c(F)cc(-c4cc(CO)c5nc(C)cn5n4)cc3nn2)CC1 [Compound 113, {6-[3-(1-ethylpiperidin-4-yl)-5-fluorocinnolin-7-yl]-2-methylimidazo[1,2-b]pyridazin-8-yl}methanol]
≤ 0.1	Cc1cn2cc(-c3cc(F)c4cc(C5CCNCC5)nnc4c3)cc(C#N)c2n1 [Compound 93, 6-[5-fluoro-3-(piperidin-4-yl)cinnolin-7-yl]-2-methylimidazo[1,2-a]pyridine-8-carbonitrile]
≤ 0.1	CCOc1cc(-c2cc(F)c3nc(C4CCNCC4)nnc3c2)nn2cc(C)nc12 [Compound 59, 7-(8-ethoxy-2-methylimidazo[1,2-b]pyridazin-6-yl)-5-fluoro-3-(piperidin-4-yl)-1,2,4-benzotriazine]
0.1 to 0.5	Cc1cn2cc(-c3nnc4cc(C5CCNCC5)ccc4n3)cc(C)c2n1 [Compound 27, 3-(2,8-dimethylimidazo[1,2-a]pyridin-6-yl)-7-(piperidin-4-yl)-1,2,4-benzotriazine]
1 to 3	Cc1cn2cc(-c3cc(F)c4cc(C5CCNCC5)nnc4c3)cnc2n1 [Compound 91, 5-fluoro-7-(2-methylimidazo[1,2-a]pyrimidin-6-yl)-3-(piperidin-4-yl)cinnoline]
≤ 0.1	Cc1cn2cc(-c3cc(F)c4nc(C5CCNCC5)ccc4c3)cc(F)c2n1 [Compound 50, 8-fluoro-6-(8-fluoro-2-methylimidazo[1,2-a]pyridin-6-yl)-2-(piperidin-4-yl)quinoline]
≤ 0.1	Cc1cn2nc(-c3ccc4cc(C5CCNCC5)nnc4c3)cc(C)c2n1 [Compound 84, 7-(2,8-dimethylimidazo[1,2-b]pyridazin-6-yl)-3-(piperidin-4-yl)cinnoline]
≤ 0.1	CCN1CCC(c2cc3c(F)cc(-c4cc(C)c5nc(C)cn5n4)cc3nn2)CC1 [Compound 76, 7-(2,8-dimethylimidazo[1,2-b]pyridazin-6-yl)-3-(1-ethylpiperidin-4-yl)-5-fluorocinnoline]
0.5 to 1	CCN1CCC(c2cc3c(F)cc(-c4cn5cc(C)nc(C)c5n4)cc3nn2)CC1 [Compound 119, 7-(6,8-dimethylimidazo[1,2-a]pyrazin-2-yl)-3-(1-ethylpiperidin-4-yl)-5-fluorocinnoline]
≤ 0.1	Cc1cn2nc(-c3cc(F)c4cc(C5CCNCC5)nnc4c3)cc(C#N)c2n1 [Compound 108, 6-[5-fluoro-3-(piperidin-4-yl)cinnolin-7-yl]-2-methylimidazo[1,2-b]pyridazine-8-carbonitrile]
≤ 0.1	Cc1cn2cc(-c3cc(F)c4nc(C5CCNCC5)nnc4c3)cc(F)c2n1 [Compound 58, 5-fluoro-7-(8-fluoro-2-methylimidazo[1,2-a]pyridin-6-yl)-3-(piperidin-4-yl)-1,2,4-benzotriazine]
≤ 0.1	Cc1cn2nc(-c3cc(F)c4cc(C5CCN(C)CC5)nnc4c3)cc(C)c2n1 [Compound 79, 7-(2,8-dimethylimidazo[1,2-b]pyridazin-6-yl)-5-fluoro-3-(1-methylpiperidin-4-yl)cinnoline]
≤ 0.1	Cc1cc2sc(-c3cc(F)c4cc(C5CCNCC5)nnc4c3)nc2c(C)n1 [Compound 149, 7-(4,6-dimethyl[1,3]thiazolo[4,5-c]pyridin-2-yl)-5-fluoro-3-(piperidin-4-yl)cinnoline]
